In patent US20060172023A1, “Use of pinolenic acid” (LODERS CROKLAAN B.V., priority 2005, published 2006):

System: enteroendocrine STC1-1 cell line
Assay: In-vitro relative CCK release from enteroendocrine cells (Example 4, RIA)
Assay type: cell-based
Conditions: 100 μM in free fatty acid form, 1 hour; for Relative amount of CCK released: measured in 6-fold
Protocol: The relative CCK release by a number of different compounds was determined in vitro an in-vitro trial to measure the effect of various free fatty acids on CCK release from intestinal cells.
Cells were routinely passaged upon reaching 70-80% confluency by washing the cell layer with PBS and incubating with a solution of trypsin-EDTA. Plating density of 2×10^6 cells by 75 cm^2 was used for routine subculture.
STC1 cells were seeded into 6-well culture plates and incubated with control culture medium, with or without the tested agents, for 1 hour. All agents were tested at a 100 μM concentration in the free fatty acid form. Since fatty acids were diluted into ethanol the effect of ethanol was tested and indicated the baseline CCK levels. […] Effects of bombesin was used as positive control. At the end of incubation the supernatant was collected, centrifuged and immediately frozen at −20° C. for RIA.
Cell viability was checked by microscopic analysis, analyzing DNA content which was measured by fluorometry after extraction of the culture cell contents, and in addition LDH release was measured.
CCK release was measured using a standard CCK RIA and effects of fatty acids were measured in 6-fold.

SMILES	Ability to induce CCK (in words)	Level of CCK relative to negative control capric acid	Relative amount of CCK released
CCCCCCCC/C=C\CCCCCCCC(=O)O [Oleic acid 18:1, cis-9 octadecenoic acid]	not able to induce high amounts of CCK	about 2 fold	90
CCCCC/C=C\C/C=C\CCCC/C=C\CCCC(=O)O [sciadonic acid]	not able to induce high amounts of CCK	about 2 fold	–
CCCC\C=C/C=C/C=C\CCCCCCCC(=O)O [Punicic acid 18:3, Punicic acid]	good inducers of CCK	–	320
CCCCC/C=C\C/C=C\C/C=C\CCCCC(=O)O [Gamma-linolenic acid 18:3, Gamma-linolenic acid]	good inducers of CCK	–	140
CC/C=C\C/C=C\C/C=C\CCCCCCCC(=O)O [Alpha-linolenic acid 18:3, Alpha-linolenic acid]	good inducers of CCK	–	177
CCCC/C=C/C=C/C=C\CCCCCCCC(=O)O [Alpha-eleostearic acid 18:3, Alpha-eleostearic acid]	good inducers of CCK	–	212
CCCCCC=CC/C=C\CCCCCCCC(=O)O [Linoleic acid 18:2, cis-9,12 octadecadienoic acid]	not able to induce high amounts of CCK	about 2 fold	68
CCCCCCCCCC(=O)O [Capric acid]	–	–	43
CCCCCCCCC=CCC/C=C\CCCC(=O)O [taxoleic acid, cis-5,9 octadecadienoic acid]	not able to induce high amounts of CCK	about 2 fold	–
CC/C=C\C/C=C\C/C=C\CCCC/C=C\CCCC(=O)O [juniperonic acid]	not able to induce high amounts of CCK	about 2 fold	–
